Assay results: publication PMC7673538 (PLoS Biology, 2020)
Where two headings read alike, the source gives them in different places.

Assays:
CV-B3 [1] = assay: microbe, parasite or virus in culture; assay type: cell-based, coxsackievirus B3; settings: Enterovirus B, CVB3, BGM
CV-B3 [2] = assay: microbe, parasite or virus in culture; assay type: cell-based, coxsackievirus B3; settings: Enterovirus B
EV-D68 = assay: microbe, parasite or virus in culture; assay type: cell-based, enterovirus D68; settings: Enterovirus D
in vitro [3] = settings: human
CV-A24 = assay: microbe, parasite or virus in culture; assay type: cell-based, coxsackievirus A24; settings: Enterovirus C
EV-A71 = assay: microbe, parasite or virus in culture; assay type: cell-based, enterovirus A71; settings: Enterovirus A
in vitro [4] = settings: monkey
HRV-A2 = assay: microbe, parasite or virus in culture; assay type: cell-based, human rhinovirus; settings: Human rhinovirus sp., HRVA2, HeLa R19, read-out: EC50 HRV-A2
[5] = tested on: representative EVs and RVs; assay type: cell-based
HRV-B14 = assay: microbe, parasite or virus in culture; assay type: cell-based, human rhinovirus; settings: Human rhinovirus sp.
PV-1 = assay: microbe, parasite or virus in culture; assay type: cell-based, poliovirus 1; settings: Enterovirus C
CV-B3 [6] = assay: microbe, parasite or virus in culture; assay type: cell-based, coxsackievirus B3; settings: for EC50: Enterovirus B
in vitro [7] = settings: human; remark: listed apart in the source
[8] = CVB3, HAP1, read-out: EC50 Hap1 Average
[9] = CVB3, HAP1, read-out: Exp 1 EC50 Hap1
[10] = CVB3, HAP1, read-out: Exp 2 EC50 Hap1
[11] = EVD68, HeLa R19, read-out: EC50 EV-D68
[12] = EVD68, HeLa R19, read-out: EC50 Exp1
[13] = EVD68, HeLa R19, read-out: EC50 Exp2
[14] = CVA24, HeLa R19, read-out: EC50 Exp1
[15] = CVA24, HeLa R19, read-out: EC50 Exp2
[16] = EVA71, HeLa R19, read-out: EC50 EV-A71
[17] = EVA71, HeLa R19, read-out: EC50 Exp1
[18] = EVA71, HeLa R19, read-out: EC50 Exp2
[19] = HRVB14, HeLa R19, read-out: EC50 HRV-B14
[20] = CVB3, HeLa R19, read-out: CV-B3 EC50 Average
[21] = CVB3, HeLa R19, read-out: CV-B3 Exp 1 EC50
[22] = CVB3, HeLa R19, read-out: CV-B3 Exp2 EC50
[23] = CVB3, HeLa R19, read-out: Exp 1 EC50 HelaR19
[24] = CVB3, HeLa R19, read-out: Exp 2 EC50 HelaR19

Cc1ccc(CN(C(=O)c2ccco2)c2ccccc2)cc1 [Compound 19g, N-(4-Methylbenzyl)-N-phenylfuran-2-carboxamide]
EC50 (CV-B3 [1]): 1700 ± 260 nM | EC50 (CV-B3 [1]; read-out: EC50 BGM Average): 1690 nM | EC50 (CV-B3 [1]; read-out: Exp 1 EC50 BGM): 1950 nM | EC50 (CV-B3 [1]; read-out: Exp 2 EC50 BGM): 1440 nM | EC50 (CV-B3 [2]; [8]): 2380 nM | EC50 (CV-B3 [2]; [9]): 2080 nM | EC50 (CV-B3 [2]; [10]): 2680 nM | EC50 (EV-D68; EVD68, HeLa R19, read-out: EC50 Average): 1480 nM | EC50 (EV-D68; [11]): 1490 ± 80 nM | EC50 (EV-D68; [12]): 1560 nM | EC50 (EV-D68; [13]): 1410 nM | CC50 (in vitro [3]; CC50): > 100000 nM | CC50 (in vitro [3]; CC50 Hap1 Average): > 100000 nM | CC50 (in vitro [3]; Exp 1 CC50 Hap1): > 100000 nM | CC50 (in vitro [3]; Exp 2 CC50 Hap1): > 100000 nM | EC50 (CV-A24; [14]): 9290 nM | EC50 (CV-A24; [15]): 11000 nM | EC50 (EV-A71; [16]): 600 ± 140 nM | EC50 (EV-A71; [17]): 460 nM | EC50 (EV-A71; [18]): 730 nM | CC50 (in vitro [4]; CC50): > 100000 nM | CC50 (in vitro [4]; CC50 BGM Average): > 100000 nM | CC50 (in vitro [4]; Exp 1 CC50 BGM): > 100000 nM | CC50 (in vitro [4]; Exp 2 CC50 BGM): > 100000 nM | EC50 (HRV-A2): > 30000 nM | spectrum of antiviral activity (in words) [5]: anti-EV activity but not anti-RV activity | EC50 (HRV-B14; HRVB14, HeLa R19, read-out: EC50 Average): 12600 nM | EC50 (HRV-B14; HRVB14, HeLa R19, read-out: EC50 Exp1): 13600 nM | EC50 (HRV-B14; HRVB14, HeLa R19, read-out: EC50 Exp2): 11500 nM | EC50 (HRV-B14; [19]): 12500 ± 1050 nM | EC50 (PV-1; HeLa R19, read-out: EC50 Exp1): 16500 nM | EC50 (PV-1; HeLa R19, read-out: EC50 Exp2): 18500 nM | EC50 (PV-1; HeLa R19, read-out: EC50 PV-1): 17500 ± 1000 nM | cytotoxicity (in words) (HeLa R19 cells): did not show any cytotoxicity | effect of the substitution on antiviral activity against CV-B3 (in words) (CV-B3 [6]): only marginally affected antiviral activity | EC50 (CV-B3 [6]; [20]): 880 nM | EC50 (CV-B3 [6]; [21]): 860 nM | EC50 (CV-B3 [6]; [22]): 890 nM | EC50 (CV-B3 [6]; [23]): 1020 nM | EC50 (CV-B3 [6]; [24]): 1690 nM | CC50 (in vitro [7]; CC50 Average): > 30000 nM | CC50 (in vitro [7]; CC50 HelaR19 Average): > 100000 nM | CC50 (in vitro [7]; Exp 1 CC50): > 30000 nM | CC50 (in vitro [7]; Exp 1 CC50 HelaR19): > 100000 nM | CC50 (in vitro [7]; Exp2 CC50): > 30000 nM | CC50 (in vitro [7]; Exp 2 CC50 HelaR19): > 100000 nM

O=C(c1ccco1)N(Cc1ccccc1)c1ccccc1 [Compound 19a, N-Benzyl-N-phenylfuran-2-carboxamide]
EC50 (CV-B3 [1]; read-out: EC50 BGM Average): 1840 nM | EC50 (CV-B3 [1]; read-out: Exp 1 EC50 BGM): 1900 nM | EC50 (CV-B3 [1]; read-out: Exp 2 EC50 BGM): 1770 nM | EC50 (CV-B3 [2]; [8]): 730 nM | EC50 (CV-B3 [2]; [9]): 480 nM | EC50 (CV-B3 [2]; [10]): 970 nM | EC50 (EV-D68; [11]): 1340 ± 450 nM | EC50 (EV-D68; [12]): 1790 nM | EC50 (EV-D68; [13]): 890 nM | CC50 (in vitro [3]; CC50): > 100000 nM | CC50 (in vitro [3]; CC50 Hap1 Average): > 100000 nM | CC50 (in vitro [3]; Exp 1 CC50 Hap1): > 100000 nM | CC50 (in vitro [3]; Exp 2 CC50 Hap1): > 100000 nM | EC50 (CV-A24; CVA24, HeLa R19, read-out: EC50 CV-A24): 21480 ± 30 nM | EC50 (CV-A24; [14]): 21500 nM | EC50 (CV-A24; [15]): 21400 nM | EC50 (EV-A71; [16]): 3500 ± 310 nM | EC50 (EV-A71; [17]): 3190 nM | EC50 (EV-A71; [18]): 3800 nM | CC50 (in vitro [4]; CC50): > 100000 nM | CC50 (in vitro [4]; CC50 BGM Average): > 100000 nM | CC50 (in vitro [4]; Exp 1 CC50 BGM): > 100000 nM | CC50 (in vitro [4]; Exp 2 CC50 BGM): > 100000 nM | EC50 (HRV-A2): > 30000 nM | spectrum of antiviral activity (in words) [5]: anti-EV activity but not anti-RV activity | EC50 (HRV-B14; [19]): > 30000 nM | EC50 (PV-1; HeLa R19, read-out: EC50 Exp1): 31500 nM | EC50 (PV-1; HeLa R19, read-out: EC50 Exp2): 33600 nM | EC50 (PV-1; HeLa R19, read-out: EC50 PV-1): 32600 ± 1080 nM | cytotoxicity (in words) (HeLa R19 cells): did not show any cytotoxicity | increase or decrease of antiviral activity against CV-B3 (CV-B3 [6]): less than 3 fold | EC50 (CV-B3 [6]; [20]): 910 nM | EC50 (CV-B3 [6]; [21]): 880 nM | EC50 (CV-B3 [6]; [22]): 940 nM | EC50 (CV-B3 [6]; CVB3, HeLa R19, read-out: EC50 HelaR19 Average): 1620 nM | EC50 (CV-B3 [6]; [23]): 1250 nM | EC50 (CV-B3 [6]; [24]): 1980 nM | CC50 (in vitro [7]; CC50 Average): > 30000 nM | CC50 (in vitro [7]; CC50 HelaR19 Average): > 100000 nM | CC50 (in vitro [7]; Exp 1 CC50): > 30000 nM | CC50 (in vitro [7]; Exp 1 CC50 HelaR19): > 100000 nM | CC50 (in vitro [7]; Exp2 CC50): > 30000 nM | CC50 (in vitro [7]; Exp 2 CC50 HelaR19): > 100000 nM
